In brackets after ≈: the same amount, converted by molar mass.
Key:
Test in all cases: In vitro antibacterial evaluation: minimum inhibitory concentration (MIC), broth dilution method
Format in all cases: cell-based
Enterococcus sp. = settings: 18 hours at 35° C.
Method in brief: (§1)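 MIC read as lowest drug level preventing visible growth. Organisms at 5×10^5 CFU/mL were exposed to a 64-0.06 μg/mL dilution series in Muller-Hinton II […] following NCCLS broth dilution standard M7-A2.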

Streptococcus sp. = settings: 18 hours at 35° C.
Method in brief: as §1

Escherichia coli = settings: 18 hours at 35° C.
Method in brief: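 Values are minimum inhibitory concentrations, meaning the smallest antibiotic concentration that stops growth of the organism. They come from broth dilution in Muller-Hinton II […] per NCCLS guidance (M7-A2), using 5×10^5 CFU/mL and concentrations from 64 to 0.06 μg/mL.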

Staphylococcus sp. = settings: for MIC Staphylococcus aureus (ATCC 29213): strain ATCC 29213; for MIC Staphylococcus aureus (GC 1131): strain GC 1131; for MIC Staphylococcus aureus (GC 3051): strain GC 3051; for MIC Staphylococcus aureus (GC 3053): strain GC 3053; for MIC Staphylococcus aureus (GC 4541): strain GC 4541; for MIC Staphylococcus aureus (GC 4542): strain GC 4542; for MIC Staphylococcus aureus-SMITH (GC 4543): strain GC 4543; for MIC Staphylococcus aureus (GC 4544): strain GC 4544; for MIC Staphylococcus aureus (GC 4545): strain GC 4545; for MIC Staphylococcus haemolyticus (GC 4546): strain GC 4546; for MIC Coagulase Negative Staphylococcus (GC 4547): strain GC 4547; for MIC Coagulase Negative Staphylococcus (GC 4548): strain GC 4548; for MIC Coagulase Negative Staphylococcus (GC 4549): strain GC 4549; for MIC Coagulase Negative Staphylococcus (GC 4551): strain GC 4551
Method in brief: as §1

[1] = Enterococcus faecalis (ATCC 29212)
[2] = Enterococcus faecalis (GC 2242)
[3] = Enterococcus faecalis (GC 2691)
[4] = Enterococcus faecalis (GC 3059)
[5] = Enterococcus faecalis (GC 4552)
[6] = Enterococcus faecalis (GC 4553)
[7] = Enterococcus faecalis (GC 4554)
[8] = Enterococcus faecalis (GC 6189)
[9] = broth dilution, inoculum 5×10^5 CFU/mL
[10] = Streptococcus agalactiae (GC 4564)
[11] = Streptococcus pneumoniae (ATCC 6301)
[12] = Streptococcus pneumoniae (GC 1894)
[13] = Streptococcus pneumoniae (GC 4565)
[14] = Streptococcus pyogenes (GC 4563)

## CC(c1ccccc1)C1NC(=O)CNC(=O)C(CO)NC(=O)C(C(O)C2CNC(=N)N2C2OC(CO)C(O)C(O)C2O)NC(=O)C(C(O)C2CNC(=N)N2)NC(=O)C(Cc2ccc(OC3OC(CO)C(OC4OC5COC6(CC7CCC6(C)C7(C)C)OC5C(O)C4O)C(O)C3O)cc2)NC1=O (stereo not drawn) [Example 214, Cyclo[glycyl-β-methylphenylalanyl-O-[4-O-[4,6-O-(1,7,7-trimethylbicyclo[2.2.1]hept-2-ylidene)hexopyranosyl]hexopyranosyl]tyrosyl-3-(2-iminoimidazolidin-4-yl)seryl-3-(3-hexopyranosyl-2-iminoimidazolidin-4-yl)serylseryl]]
Enterococcus sp.; Enterococcus avium (GC 4558)
  MIC Enterococcus avium (GC 4558): 2 µg/mL (≈ 1.4 µM)
Enterococcus sp.; [1]
  MIC Enterococcus faecalis (ATCC 29212): 2 µg/mL (≈ 1.4 µM)
Enterococcus sp.; [2]
  MIC Enterococcus faecalis (GC 2242): 2 µg/mL (≈ 1.4 µM)
Enterococcus sp.; [3]
  MIC Enterococcus faecalis (GC 2691): 2 µg/mL (≈ 1.4 µM)
Enterococcus sp.; [4]
  MIC Enterococcus faecalis (GC 3059): 2 µg/mL (≈ 1.4 µM)
Enterococcus sp.; [5]
  MIC Enterococcus faecalis (GC 4552): 2 µg/mL (≈ 1.4 µM)
Enterococcus sp.; [6]
  MIC Enterococcus faecalis (GC 4553): 2 µg/mL (≈ 1.4 µM)
Enterococcus sp.; [7]
  MIC Enterococcus faecalis (GC 4554): 2 µg/mL (≈ 1.4 µM)
Enterococcus sp.; [8]
  MIC Enterococcus faecalis (GC 6189): 2 µg/mL (≈ 1.4 µM)
Enterococcus sp.; Enterococcus faecium (GC 2243)
  MIC Enterococcus faecium (GC 2243): 1 µg/mL (≈ 0.7 µM)
Enterococcus sp.; Enterococcus faecium (GC 4556)
  MIC Enterococcus faecium (GC 4556): 2 µg/mL (≈ 1.4 µM)
Enterococcus sp.; Enterococcus faecium (GC 4557)
  MIC Enterococcus faecium (GC 4557): 2 µg/mL (≈ 1.4 µM)
Enterococcus sp.; [9]
  MIC Enterococcus avium (GC 4558): 2 µg/mL (≈ 1.4 µM)
  MIC Enterococcus faecalis (ATCC 29212): 2 µg/mL (≈ 1.4 µM)
  MIC Enterococcus faecalis (GC 2242): 2 µg/mL (≈ 1.4 µM)
  MIC Enterococcus faecalis (GC 2691): 2 µg/mL (≈ 1.4 µM)
  MIC Enterococcus faecalis (GC 3059): 2 µg/mL (≈ 1.4 µM)
  MIC Enterococcus faecalis (GC 4552): 2 µg/mL (≈ 1.4 µM)
  MIC Enterococcus faecalis (GC 4553): 2 µg/mL (≈ 1.4 µM)
  MIC Enterococcus faecalis (GC 4554): 2 µg/mL (≈ 1.4 µM)
  MIC Enterococcus faecalis (GC 6189): 2 µg/mL (≈ 1.4 µM)
  MIC Enterococcus faecium (GC 2243): 1 µg/mL (≈ 0.7 µM)
  MIC Enterococcus faecium (GC 4556): 2 µg/mL (≈ 1.4 µM)
  MIC Enterococcus faecium (GC 4557): 2 µg/mL (≈ 1.4 µM)
Streptococcus sp.; [10]
  MIC Streptococcus agalactiae (GC 4564): <0.12 µg/mL
Streptococcus sp.; [11]
  MIC Streptococcus pneumoniae (ATCC 6301): <0.12 µg/mL
Streptococcus sp.; [12]
  MIC Streptococcus pneumoniae (GC 1894): <0.12 µg/mL
Streptococcus sp.; [13]
  MIC Streptococcus pneumoniae (GC 4565): <0.12 µg/mL
Streptococcus sp.; [14]
  MIC Streptococcus pyogenes (GC 4563): <0.12 µg/mL
Streptococcus sp.; [9]
  MIC Streptococcus agalactiae (GC 4564): <0.12 µg/mL
  MIC Streptococcus pneumoniae (ATCC 6301): <0.12 µg/mL
  MIC Streptococcus pneumoniae (GC 1894): <0.12 µg/mL
  MIC Streptococcus pneumoniae (GC 4565): <0.12 µg/mL
  MIC Streptococcus pyogenes (GC 4563): <0.12 µg/mL
Escherichia coli
  MIC Escherichia coli (ATCC 25922): 64 µg/mL (≈ 44.8 µM)
  MIC Escherichia coli (GC 4559): 64 µg/mL (≈ 44.8 µM)
  MIC Escherichia coli (GC 4560): 2 µg/mL (≈ 1.4 µM)
Staphylococcus sp.
  MIC Staphylococcus aureus (ATCC 29213): 2 µg/mL (≈ 1.4 µM)
  MIC Staphylococcus aureus (GC 1131): 1 µg/mL (≈ 0.7 µM)
  MIC Staphylococcus aureus (GC 3051): 32 µg/mL (≈ 22.4 µM)
  MIC Staphylococcus aureus (GC 3053): 2 µg/mL (≈ 1.4 µM)
  MIC Staphylococcus aureus (GC 4541): 2 µg/mL (≈ 1.4 µM)
  MIC Staphylococcus aureus (GC 4542): 1 µg/mL (≈ 0.7 µM)
  MIC Staphylococcus aureus-SMITH (GC 4543): 0.5 µg/mL (≈ 0.35 µM)
  MIC Staphylococcus aureus (GC 4544): 1 µg/mL (≈ 0.7 µM)
  MIC Staphylococcus aureus (GC 4545): 2 µg/mL (≈ 1.4 µM)
  MIC Staphylococcus haemolyticus (GC 4546): 1 µg/mL (≈ 0.7 µM)
  MIC Coagulase Negative Staphylococcus (GC 4547): 1 µg/mL (≈ 0.7 µM)
  MIC Coagulase Negative Staphylococcus (GC 4548): 1 µg/mL (≈ 0.7 µM)
  MIC Coagulase Negative Staphylococcus (GC 4549): 0.5 µg/mL (≈ 0.35 µM)
  MIC Coagulase Negative Staphylococcus (GC 4551): 1 µg/mL (≈ 0.7 µM)

## CC(c1ccccc1)C1NC(=O)CNC(=O)C(CO)NC(=O)C(C(O)C2CNC(=N)N2C2OC(CO)C(O)C(O)C2O)NC(=O)C(C(O)C2CNC(=N)N2)NC(=O)C(Cc2ccc(OC3OC(CO)C(OC4OC5COC6(CC7CCC6(C)C7(C)C)OC5C(O)C4O)C(O)C3O)cc2)NC1=O (stereo not drawn) [Example 215, Cyclo[glycyl-β-methylphenylalanyl-O-[4-O-[4,6-O-(1,7,7-trimethylbicyclo[2.2.1]hept-2-ylidene)hexopyranosyl]hexopyranosyl]tyrosyl-3-(2-iminoimidazolidin-4-yl)seryl-3-(3-hexopyranosyl-2-iminoimidazolidin-4-yl)serylseryl]]
Enterococcus sp.; Enterococcus avium (GC 4558)
  MIC Enterococcus avium (GC 4558): 0.5 µg/mL (≈ 0.35 µM)
Enterococcus sp.; [1]
  MIC Enterococcus faecalis (ATCC 29212): 0.5 µg/mL (≈ 0.35 µM)
Enterococcus sp.; [2]
  MIC Enterococcus faecalis (GC 2242): 1 µg/mL (≈ 0.7 µM)
Enterococcus sp.; [3]
  MIC Enterococcus faecalis (GC 2691): 1 µg/mL (≈ 0.7 µM)
Enterococcus sp.; [4]
  MIC Enterococcus faecalis (GC 3059): 1 µg/mL (≈ 0.7 µM)
Enterococcus sp.; [5]
  MIC Enterococcus faecalis (GC 4552): 1 µg/mL (≈ 0.7 µM)
Enterococcus sp.; [6]
  MIC Enterococcus faecalis (GC 4553): 0.5 µg/mL (≈ 0.35 µM)
Enterococcus sp.; [7]
  MIC Enterococcus faecalis (GC 4554): 1 µg/mL (≈ 0.7 µM)
Enterococcus sp.; [8]
  MIC Enterococcus faecalis (GC 6189): 1 µg/mL (≈ 0.7 µM)
Enterococcus sp.; Enterococcus faecium (GC 2243)
  MIC Enterococcus faecium (GC 2243): 0.5 µg/mL (≈ 0.35 µM)
Enterococcus sp.; Enterococcus faecium (GC 4556)
  MIC Enterococcus faecium (GC 4556): 1 µg/mL (≈ 0.7 µM)
Enterococcus sp.; Enterococcus faecium (GC 4557)
  MIC Enterococcus faecium (GC 4557): 0.5 µg/mL (≈ 0.35 µM)
Enterococcus sp.; [9]
  MIC Enterococcus avium (GC 4558): 0.5 µg/mL (≈ 0.35 µM)
  MIC Enterococcus faecalis (ATCC 29212): 0.5 µg/mL (≈ 0.35 µM)
  MIC Enterococcus faecalis (GC 2242): 1 µg/mL (≈ 0.7 µM)
  MIC Enterococcus faecalis (GC 2691): 1 µg/mL (≈ 0.7 µM)
  MIC Enterococcus faecalis (GC 3059): 1 µg/mL (≈ 0.7 µM)
  MIC Enterococcus faecalis (GC 4552): 1 µg/mL (≈ 0.7 µM)
  MIC Enterococcus faecalis (GC 4553): 0.5 µg/mL (≈ 0.35 µM)
  MIC Enterococcus faecalis (GC 4554): 1 µg/mL (≈ 0.7 µM)
  MIC Enterococcus faecalis (GC 6189): 1 µg/mL (≈ 0.7 µM)
  MIC Enterococcus faecium (GC 2243): 0.5 µg/mL (≈ 0.35 µM)
  MIC Enterococcus faecium (GC 4556): 1 µg/mL (≈ 0.7 µM)
  MIC Enterococcus faecium (GC 4557): 0.5 µg/mL (≈ 0.35 µM)
Streptococcus sp.; [10]
  MIC Streptococcus agalactiae (GC 4564): <0.12 µg/mL
Streptococcus sp.; [11]
  MIC Streptococcus pneumoniae (ATCC 6301): <0.12 µg/mL
Streptococcus sp.; [12]
  MIC Streptococcus pneumoniae (GC 1894): <0.12 µg/mL
Streptococcus sp.; [13]
  MIC Streptococcus pneumoniae (GC 4565): <0.12 µg/mL
Streptococcus sp.; [14]
  MIC Streptococcus pyogenes (GC 4563): <0.12 µg/mL
Streptococcus sp.; [9]
  MIC Streptococcus agalactiae (GC 4564): <0.12 µg/mL
  MIC Streptococcus pneumoniae (ATCC 6301): <0.12 µg/mL
  MIC Streptococcus pneumoniae (GC 1894): <0.12 µg/mL
  MIC Streptococcus pneumoniae (GC 4565): <0.12 µg/mL
  MIC Streptococcus pyogenes (GC 4563): <0.12 µg/mL
Escherichia coli
  MIC Escherichia coli (ATCC 25922): 32 µg/mL (≈ 22.4 µM)
  MIC Escherichia coli (GC 4559): 32 µg/mL (≈ 22.4 µM)
  MIC Escherichia coli (GC 4560): 1 µg/mL (≈ 0.7 µM)
Staphylococcus sp.
  MIC Staphylococcus aureus (ATCC 29213): 0.5 µg/mL (≈ 0.35 µM)
  MIC Staphylococcus aureus (GC 1131): 0.5 µg/mL (≈ 0.35 µM)
  MIC Staphylococcus aureus (GC 3051): 0.5 µg/mL (≈ 0.35 µM)
  MIC Staphylococcus aureus (GC 3053): 1 µg/mL (≈ 0.7 µM)
  MIC Staphylococcus aureus (GC 4541): 0.5 µg/mL (≈ 0.35 µM)
  MIC Staphylococcus aureus (GC 4542): 0.5 µg/mL (≈ 0.35 µM)
  MIC Staphylococcus aureus-SMITH (GC 4543): <0.12 µg/mL
  MIC Staphylococcus aureus (GC 4544): 0.5 µg/mL (≈ 0.35 µM)
  MIC Staphylococcus aureus (GC 4545): 1 µg/mL (≈ 0.7 µM)
  MIC Staphylococcus haemolyticus (GC 4546): 0.5 µg/mL (≈ 0.35 µM)
  MIC Coagulase Negative Staphylococcus (GC 4547): 0.5 µg/mL (≈ 0.35 µM)
  MIC Coagulase Negative Staphylococcus (GC 4548): 0.5 µg/mL (≈ 0.35 µM)
  MIC Coagulase Negative Staphylococcus (GC 4549): <0.12 µg/mL
  MIC Coagulase Negative Staphylococcus (GC 4551): 0.5 µg/mL (≈ 0.35 µM)

Reference: patent US8247211B2, “Glycopeptide antibiotics” (American Cyanamid Company, priority 2001, dated 2012)
